Experimental data taken from PMC9041133 (RSC Advances, 2021).

What was measured:
[1] = Pharmacokinetic study in healthy volunteers after oral fixed-combination tablet, plasma measured by USA-DMSPE-HPLC-UV; format: in vivo; conditions: human; for half-life: read-out: T ½ (converted)
Method: First of all, some frozen human plasma samples were allowed to be thawed at room temperature (23 ± 0.5 °C) and afterwards they were placed into centrifuge tubes. Acetonitrile was applied as a deproteinizing agent to precipitate all proteins existing in plasma. In this regard, 1.9 mL of plasma was spiked with 100.0 μL of working standard solutions to get the suitable concentration level of DIC and FEB, then, to all tubes, 2.0 mL acetonitrile was added. All the biological samples were vortexed for 3 min for complete mixing and followed with centrifugation at 5000 rpm for 4 min. For evaporating the acetonitrile content of each real sample, the tube containing the spiked sample was placed under a stream of nitrogen. To adjust the pH of media, 4.0 mL buffer solution at pH 5.0 was added to real sample. Eventually, 5.0 mL of the resultant spiked sample was subjected to the extraction and measurement protocols for further evaluations.
5.0 mL of the prepared spiked human plasma was placed into a centrifuge tube and then 20.0 mg of synthesized hybrid sorbent was added to the tube. For ensuring the complete dispersion of the supermagnetic hybrid sorbent into the solution, ultrasonic irradiation was utilized for 6 min. As the sorbent is dispersed through the sample, the target drugs are adsorbed on the surface of it. Subsequently, an external magnetic field composed of neodymium (Nd), iron (Fe) and boron (B) (0.8 tesla) was applied to separate the hybrid sorbent from media and the free drug sample was removed by a pipette. In order to desorb the target drugs from the extractor, it was washed with 1.5 mL with acetonitrile in three steps (0.5 mL in each step) while ultrasonic irradiation was applied for 3 min. Nd-Fe-B-Nd magnet was used again in this step and then the solution was separated and dried under a stream of nitrogen. After collecting the remaining material, which contains DIC and FEB, was dissolved in 50.0 μL of the mobile phase of HPLC and 20.0 μL of it was injected into the separation column and further measurements were carried out.
The volunteer's blood were collected after 0 to 4 and 8, 12 and 24 h of taking the drug and the samples were transferred to the polypropylene tubes containing ethylenediaminetetraacetic acid and centrifuged to achieve the required human plasma, after that the samples were kept at −18 °C. […] The samples were analyzed by means of the current method and the average concentration of each drug versus time was drawn. In this assessment, some major pharmacokinetic features including Tmax, Cmax, AUC0–t, AUC0–∞, and T½ were calculated and the results were summarized in Table 3.

[2] = parameters: method as in doi:10.1016/j.microc.2019.03.022, PMID 28953473; conditions: reported values; cited from earlier work

| SMILES | Tmax [1] | half-life [1] | pKa [2] |
| --- | --- | --- | --- |
| O=C(O)Cc1ccccc1Nc1c(Cl)cccc1Cl [Diclofenac, 2-(2,6-dichloranilino)phenylacetic acid] | 2.88 ± 0.3 h | 5.1 ± 1.1 h |  |
| Cc1nc(-c2ccc(OCC(C)C)c(C#N)c2)sc1C(=O)O [Febuxostat, 2-(3-cyano-4-isobutoxyphenyl)-4-methyl-1,3-thiazole-5-carboxylic acid] | 3.15 ± 0.27 h | 6.3 ± 1.5 h | 3.3 |
